Laboratory results reported in patent publication US9796676B2, “Honeybee repellents and uses thereof” (Inscent, Inc., priority 2013, dated 2017).

Key:
[1] = tested on: Apis mellifera Carniolan foraging worker honeybees; test: Choice test in a free-flight box apparatus; type: in vivo; details: for P (probability that a honeybee will return to a test dish, nP divided by n): control likelihood without compound 47.5%; for nP (number of tests a honeybee returned to a preferred test dish): free-flight box, 2 μL of 0.05-0.5% compound on filter papers under honey dish
Excerpt: To determine whether living honeybees will choice to move towards a source of a candidate compound, these compounds will be assayed using a choice test in a free-flight box apparatus.
All tests will be done in a free-flight box apparatus. The apparatus comprises a 244 cm long×46 cm deep×30 cm high clear plastic box including two equally-sized independent testing chambers, each with 10 cm diameter air inlets that admit filtered room air, separated by a smaller central chamber with a screened air outlet to each testing chamber. Air can be pulled through the sealed box via a 10 cm diameter duct from the air outlet using an AQE Fume Fighter 500 fume extractor (BPA Air Quality Solutions, LLC, Charleston, S.C.), which removes the test odors using activated charcoal and HEPA filters. The box is housed in an environmentally controlled room with overhead illumination timed to correspond to the current ambient light cycle including 2 additional sets of lights timed to approximate crepuscular lighting conditions. The bottom of the apparatus will be lined with clean absorbent paper marked with a 4×9 grid pattern, forming 12 cm×12 cm squares with marked coordinates.
Apis mellifera Carniolan foraging worker honeybees will be obtained from a local apiary (typically 60 bees per shipment). Thirty honeybees will be put into each testing chamber and will be allowed to acclimate for 24 hours with food and water freely available. At the beginning of each test day all food will be removed from the test chamber, but water will be continually available throughout all tests. For each test, approximately 0.3 g of organic, raw orange blossom honey will be added to each clean small plastic weigh boat (Cole-Palmer). The honey boats will be placed in small plastic culture dishes, which will be distributed in the marked squares in the chambers. The positions of the dishes on the grid for a set of trials will be chosen to avoid the bees' preferred resting area so that they will have to find the food actively, but the same dish positions will be maintained for a given set of trials. We will use seven dishes of honey: six to which the bees will have access and a seventh that will have a screened lid. The honey in each boat will be weighed on an analytical balance before and after the test, with the screened sample as a control for evaporative loss. The fume extractor will be left off during the experimental trails, and will be turned on to clear the air after the test dishes are covered and removed from the chamber at the end of each trial.
Based on the observation that bees tend to return to dishes in the same position where they have fed before, each set of trials with each group of bees began with “Pattern Identification” tests to see which dishes lose the most weight, reflecting the most feeding. Once bees are consuming an acceptable amount in 10-15 min, typically in 1-2 trials, a set of test compound trials will begin. The test compound will be pipetted onto pieces of filter paper placed on the dish bottom below the boat containing a fresh, weighed honey sample so that the test compound will be inaccessible to the bees. We used 2 μL of a candidate compound at a concentration of 0.05-0.5%, in Triton X-100 or paraffin oil, on each of four pieces of filter paper per dish. The test-solution dishes will be set at the same positions as the one or two dishes favored in the preceding Pattern Identification trial. To eliminate interference from the solvent, the other dishes without the test substance will contain the same volume of the appropriate solvent on filter papers as the test solution dishes. The bees will be allowed to feed for 10-15 minutes. Bee movements will be recorded by a small, wide-angle digital video camcorder (HD Hero 960; GoPro, Halfmoon Bay, Calif.) placed on a tripod in front of the test chamber. […]

[2] = cited from earlier work
OBP2 = test: Fluorescent-quench ligand-protein-binding assay (OBP2 binding); set-up: species or system Apis mellifera
Excerpt: To identify a honeybee repellent disclosed herein, candidate compounds were screened based upon the fact that 2-heptanone is an established repellent of bees. 2-heptanone is thought to mediate its behavioral response through binding to a specific odorant-binding protein called OBP2. […] Such assays are generally known in the art. See, e.g., Briand, et al., Ligand-Binding Properties and Structural Characterization of a Novel Rat Odorant-Binding Protein Variant, Eur. J. Biochem. 267(10): 3079-3089 (2000); Briand, et al., Ligand Binding and Physico-Chemical Properties of ASP2, A Recombinant Odorant-Binding Protein From Honeybee (Apis mellifera L.), Eur. J. Biochem. 268(3): 752-760 (2001); Briand, et al., Characterization of a Chemosensory Protein (ASP3c) from Honeybee (Apis mellifera L.) as a Brood Pheromone Carrier, Eur. J. Biochem. 269(18): 4586-4596 (2002), each of which is hereby incorporated by reference in its entirety.

[3] = tested on: Apis mellifera Carniolan foraging worker honeybees; test: Proboscis extension response (PER) assay with bees conditioned to 2-heptanone; type: in vivo; details: 0.5% compound in Triton X-100/water on filter paper, 4 s exposure; only bees giving PER with 2-heptanone and not with water or 15% Triton X-100 controls counted
Procedure: To determine whether a living honeybee can recognize a candidate compound, these compounds were tested using a proboscis extension response (PER) assay using classical conditioning approaches. Proboscis extension response conditioning is a case of appetitive learning, in which bees learn to associate odor stimuli with sucrose reward in the laboratory. In this case, bees were conditioned to produce a PER to 2-heptanone as the conditioned stimulus and a sugar reward as the unconditioned stimulus. These trained bees were then exposed to an odor pulse of a candidate compound to test whether a candidate compound would also produce a PER. If the candidate compound “mimics” 2-heptanone then the honeybee will extend its proboscis.
For conditioning procedures, Apis mellifera Carniolan foraging worker honeybees were obtained from a local apiary (typically 60 bees per shipment). The honeybees were held overnight in insect cages with food and water freely available, in an environmentally controlled room on a light cycle similar to the ambient cycle at the time of the assay.
For conditioning procedures, all tests were done in an odorant delivery apparatus set inside a fume hood. The apparatus comprised a set of open-ended, horizontal, 3 cm diameter by 10 cm long plastic tubes. Each tube was designed where a honeybee could be positioned at the distal end of a tube, with the opening at the other end of the tube located proximal to an inlet of the fume hood. To deliver an odorant, room air was pumped by a diaphragm pump through a particle filter via 0.25 inch plastic tubing at approximately 0.7 m/sec. The air flow passes into the headspace above an odorant (0.5% [v/v] 2-heptanone dissolved in odorless light paraffin oil) contained in a 100 mL bottle. The headspace air then passes through another plastic tube to a manifold of 4-way valves, each of which was attached near the proximal end of a plastic tube containing a bee. Each bee was exposed separately for a desired time period to the odorant by opening and closing the appropriate valve. When each valve was closed, the odor was flushed away immediately by the continuous fume hood air stream.
To train a honeybee to respond to a conditioned and unconditioned stimuli, bees were placed, without anesthesia, in individual 1.5 mL micro-centrifuge holding tubes and held overnight without access to food or water. The holding tubes containing the starved bees were placed in racks in groups of eight. One rack at a time was placed behind the odorant delivery apparatus so that each bee's head is centered at the distal end of a horizontal plastic tube. Each bee was exposed to the 2-heptanone odorant alone for four seconds, and then while being fed an 80% sucrose solution for and additional three seconds. The sucrose solution was delivered on a piece of saturated filter paper held in forceps. […] Positive and negative responses were recorded. A positive PER was scored when a bee extended its proboscis before the sucrose appeared. In a typical trial, 48 individual bees were subjected to conditioning.
After conditioning, honeybees were tested with the candidate compounds the same day or on the following day or, most commonly, both. When held overnight, bees were fed with sucrose and kept in their holding tubes. When tested the day after training, bees were given one or more rounds of conditioning with 2-heptatone to refresh their memories. Candidate compounds stocks were made at 5% (w/v) in polyoxyethylene octyl phenyl ether (TRITON® X-100), a non-ionic detergent/surfactant, and stored at 4° C. […] Test solutions were made fresh daily by mixing stock solutions with water for a final compound concentration of 0.5%. A solution of 0.5% 2-heptanone in paraffin oil was used as a positive control.

CCCCCC(C)=O [2-heptone, 2-Heptanone, reference compound]
Z-score ([1]; Z-test vs control likelihood 47.5%, alpha=10%, critical Z-score 1.282, positive = attractant, negative = repellant): −2.256 | P (probability that a honeybee will return to a test dish, nP divided by n) [1]: 0.425 | nP (number of tests a honeybee returned to a preferred test dish) [1]: 217 | Solubility in water [2]: very slightly soluble

CCOc1ccccc1C=NN1C(=O)c2ccccc2C1=O [compound 79]
OBP2 binding characteristic of compound (OBP2): Moderate (Moderate, indicates that 50% or less of the compound bound to OBP2.) | 2-heptanone positive bees testing positive to compound [3]: 23.1% | P (probability that a honeybee will return to a test dish, nP divided by n) [1]: 1 | nP (number of tests a honeybee returned to a preferred test dish) [1]: 2

c1ccc(Oc2cc(-n3cccn3)nc(-c3ccccc3)n2)cc1 [compound 80, 4-phenoxy-2-phenyl-6-(1H-pyrazol-1-yl)pyrimidine]
OBP2 binding characteristic of compound (OBP2): Moderate (Moderate, indicates that 50% or less of the compound bound to OBP2.) | 2-heptanone positive bees testing positive to compound [3]: 20.0% | P (probability that a honeybee will return to a test dish, nP divided by n) [1]: 0.333 | nP (number of tests a honeybee returned to a preferred test dish) [1]: 2

CCOC(=O)c1cc(CC)sc1NC(=O)c1ccccc1 [compound 81, ethyl 2-(benzoylamino)-5-ethyl-3-thiophenecarboxylate]
OBP2 binding characteristic of compound (OBP2): Moderate (Moderate, indicates that 50% or less of the compound bound to OBP2.) | 2-heptanone positive bees testing positive to compound [3]: 37.5% | P (probability that a honeybee will return to a test dish, nP divided by n) [1]: 0.333 | nP (number of tests a honeybee returned to a preferred test dish) [1]: 6

Oc1c(Br)cc(Cl)cc1C=Nc1ccccn1 [compound 83, 2-bromo-4-chloro-6-[(2-pyridinylimino)methyl]phenol]
OBP2 binding characteristic of compound (OBP2): Moderate (Moderate, indicates that 50% or less of the compound bound to OBP2.) | 2-heptanone positive bees testing positive to compound [3]: 47.7% | P (probability that a honeybee will return to a test dish, nP divided by n) [1]: 0.278 | nP (number of tests a honeybee returned to a preferred test dish) [1]: 10

O=C1NC(=S)SC1=Cc1ccc(N2CCOCC2)c([N+](=O)[O-])c1 [compound 86, 5-[4-(4-morpholinyl)-3-nitrobenzylidene]-2-thioxo-1,3-thiazolidin-4-one]
OBP2 binding characteristic of compound (OBP2): Moderate (Moderate, indicates that 50% or less of the compound bound to OBP2.) | 2-heptanone positive bees testing positive to compound [3]: 38.1% | P (probability that a honeybee will return to a test dish, nP divided by n) [1]: 0.25 | nP (number of tests a honeybee returned to a preferred test dish) [1]: 8

CCc1ccc(O)c(N=Cc2cc(I)cc(I)c2O)c1 [compound 89, 2-{[(5-ethyl-2-hydroxyphenyl)imino]methyl}-4,6-diiodophenol]
OBP2 binding characteristic of compound (OBP2): Moderate (Moderate, indicates that 50% or less of the compound bound to OBP2.) | 2-heptanone positive bees testing positive to compound [3]: 33.3% | P (probability that a honeybee will return to a test dish, nP divided by n) [1]: 0.278 | nP (number of tests a honeybee returned to a preferred test dish) [1]: 5
